In ChEMBL document CHEMBL4251736, “Discovery of Novel Diarylpyrimidine Derivatives as Potent HIV-1 NNRTIs Targeting the "NNRTI Adjacent" Binding Site” (ACS Med Chem Lett, 2018):
Calls of active or inactive are those of the source. The rule behind the calls is not given here.

Key:
[1] = tested on: Human immunodeficiency virus 1; assay: Antiviral activity against HIV1 harboring reverse transcriptase K103N mutant infected in human MT4 cells assessed as inhibition of viral replication after 5 days by MTT assay; assay type: functional, organism-based; conditions: Human immunodeficiency virus 1, MT4, 120 h
[2] = tested on: Human immunodeficiency virus 1; assay: Potency index, ratio of etravirine EC50 to compound EC50 for HIV1 harboring reverse transcriptase K103N mutant infected in human MT4 cells; assay type: functional
[3] = tested on: Human immunodeficiency virus 2; assay: Antiviral activity against HIV2 ROD infected in human MT4 cells assessed as inhibition of virus-induced cytopathic effect after 5 days by MTT assay; assay type: functional, organism-based; conditions: ISOLATE ROD
[4] = tested on: Human immunodeficiency virus 1; assay: Antiviral activity against HIV1 RES056 harboring reverse transcriptase K103N/Y181C double mutant infected in human MT4 cells assessed as inhibition of viral replication after 5 days by MTT assay; assay type: functional, organism-based; conditions: Human immunodeficiency virus 1, RES056, MT4, 120 h
[5] = tested on: Human immunodeficiency virus 1; assay: Antiviral activity against HIV1 harboring reverse transcriptase Y188L mutant infected in human MT4 cells assessed as inhibition of viral replication after 5 days by MTT assay; assay type: functional, organism-based
[6] = tested on: Human immunodeficiency virus 1; assay: Antiviral activity against HIV1 harboring reverse transcriptase F227L/V106A double mutant infected in human MT4 cells assessed as inhibition of viral replication after 5 days by MTT assay; assay type: functional, organism-based; conditions: Human immunodeficiency virus 1, MT4, 120 h
[7] = tested on: Human immunodeficiency virus 1; assay: Antiviral activity against HIV1 harboring reverse transcriptase Y181C mutant infected in human MT4 cells assessed as inhibition of viral replication after 5 days by MTT assay; assay type: functional, organism-based; conditions: Human immunodeficiency virus 1, MT4, 120 h
[8] = target: Human immunodeficiency virus type 1 reverse transcriptase (Human immunodeficiency virus 1, UniProt Q72547); assay: Inhibition of recombinant wild type HIV1 reverse transcriptase assessed as decrease in biotin-dUTP incorporation using DIG-labeled dUTP/biotin-labeled dUTP and dTTP as template and viral nucleotides after 1 hr by ELISA
[9] = tested on: Human immunodeficiency virus 1; assay: Antiviral activity against wild type HIV1 3B infected in human MT4 cells assessed as inhibition of virus-induced cytopathic effect after 5 days by MTT assay; assay type: functional, organism-based; conditions: Human immunodeficiency virus 1, 3B, MT4, 120 h
[10] = Selectivity index, ratio of CC50 for human MT4 cells to EC50 for wild type HIV1 3B; assay type: toxicity; conditions: read-out: Ratio CC50/EC50
[11] = Cytotoxicity against human MT4 cells assessed as decrease in cell viability after 5 days by MTT assay; assay type: cell-based
[12] = tested on: Human immunodeficiency virus 1; assay: Potency index, ratio of etravirine EC50 to compound EC50 for wild type HIV1 3B infected in human MT4 cells; assay type: functional
[13] = tested on: Human immunodeficiency virus 1; assay: Antiviral activity against HIV1 harboring reverse transcriptase E138K mutant infected in human MT4 cells assessed as inhibition of viral replication after 5 days by MTT assay; assay type: functional, organism-based; conditions: for EC50: Human immunodeficiency virus 1, MT4, 120 h
[14] = tested on: Human immunodeficiency virus 1; assay: Antiviral activity against HIV1 harboring reverse transcriptase L100I mutant infected in human MT4 cells assessed as inhibition of viral replication after 5 days by MTT assay; assay type: functional, organism-based; conditions: Human immunodeficiency virus 1, MT4, 120 h
[15] = tested on: Human immunodeficiency virus 1; assay: Fold resistance, ratio of EC50 for HIV1 harboring reverse transcriptase K103N mutant infected in human MT4 cells to EC50 for wild type HIV1 3B infected in human MT4 cells; assay type: functional
[16] = tested on: Human immunodeficiency virus 1; assay: Potency index, ratio of etravirine EC50 to compound EC50 for HIV1 harboring reverse transcriptase Y181C mutant infected in human MT4 cells; assay type: functional
[17] = tested on: Human immunodeficiency virus 1; assay: Potency index, ratio of etravirine EC50 to compound EC50 for HIV1 harboring reverse transcriptase L100I mutant infected in human MT4 cells; assay type: functional
[18] = tested on: Human immunodeficiency virus 1; assay: Potency index, ratio of etravirine EC50 to compound EC50 for HIV1 harboring reverse transcriptase Y188L mutant infected in human MT4 cells; assay type: functional
[19] = tested on: Human immunodeficiency virus 1; assay: Potency index, ratio of etravirine EC50 to compound EC50 for HIV1 harboring reverse transcriptase E138K mutant infected in human MT4 cells; assay type: functional

Structure (SMILES)	EC50 [1]	inhibition [3]	IC50 [8]	EC50 [9]	selectivity ratio [10]	CC50 at 120 h [11]	EC50 [13]	other results
O=C1Nc2ccc(Cl)cc2[C@@](C#CC2CC2)(C(F)(F)F)O1 [EFAVIRENZ]	81 nM	–	–	–	–	–	–	–
Cc1cc(C#N)cc(C)c1Oc1nc(Nc2ccc(C#N)cc2)ncc1SCC(=O)NC1CC1	1.4 to 8.3 nM	inactive	21 nM	2.4 nM	152 to 15400	5.1 to 149 µM	6 to 34.7 nM	Ratio EC50 [2]: 1.3 - 2.3; EC50 [4]: > 100 nM; inhibition [5]: Active; EC50 [6]: > 100 nM; EC50 [7]: 11.1 to 13.8 nM; Ratio EC50 [12]: 1.6
Cc1cc(C#N)cc(C)c1Oc1nc(Nc2ccc(C#N)cc2)ncc1SCC(=O)NCc1ccc(O)cc1	1.4 to 8.3 nM	inactive	13 to 863 nM	< 10 nM	152 to 15400	5.1 to 149 µM	6 to 34.7 nM	–
Cc1cc(C#N)cc(C)c1Oc1nc(Nc2ccc(C#N)cc2)ncc1SCC(=O)N1CC[C@H](NC(=O)OC(C)(C)C)C1	–	inactive	13 to 863 nM	33.9 nM	152 to 15400	5.1 to 149 µM	–	–
Cc1cc(C#N)cc(C)c1Oc1nc(Nc2ccc(C#N)cc2)ncc1SCC(=O)NCC1CCCO1 (stereo unspecified)	1.4 to 8.3 nM	inactive	13 to 863 nM	< 10 nM	152 to 15400	5.1 to 149 µM	6 to 34.7 nM	–
COC(=O)CCS(=O)(=O)c1cnc(Nc2ccc(C#N)cc2)nc1Oc1c(C)cc(C#N)cc1C	–	inactive	13 to 863 nM	1560 nM	9	5.1 to 149 µM	–	–
Cc1cc(C#N)cc(C)c1Oc1nc(Nc2ccc(C#N)cc2)ncc1SCC(=O)C(=O)O	–	inactive	13 to 863 nM	2.4 to 216 nM	152 to 15400	5.1 to 149 µM	–	–
C#CCNC(=O)CSc1cnc(Nc2ccc(C#N)cc2)nc1Oc1c(C)cc(C#N)cc1C	1.4 to 8.3 nM	inactive	23 nM	2.4 nM	152 to 15400	5.1 to 149 µM	6 to 34.7 nM	Ratio EC50 [2]: 1.3 - 2.3; EC50 [4]: > 100 nM; inhibition [5]: Active; EC50 [6]: > 100 nM; EC50 [7]: 11.1 to 13.8 nM; Ratio EC50 [12]: 1.6; EC50 [14]: 7.7 nM
COC(=O)CS(=O)(=O)c1cnc(Nc2ccc(C#N)cc2)nc1Oc1c(C)cc(C#N)cc1C	–	inactive	13 to 863 nM	68.8 nM	152 to 15400	5.1 to 149 µM	–	–
Cc1cc(C#N)cc(C)c1Oc1nc(Nc2ccc(C#N)cc2)ncc1SCC(=O)N1CCSCC1	1.4 to 44.9 nM	inactive	13 to 863 nM	38.3 nM	152 to 15400	5.1 to 149 µM	6 to 157 nM	Ratio EC50 [15]: 0.4 - 1.9
C=CCNC(=O)CSc1cnc(Nc2ccc(C#N)cc2)nc1Oc1c(C)cc(C#N)cc1C	1.4 to 8.3 nM	inactive	13 to 863 nM	2.4 to 3.8 nM	152 to 15400	5.1 to 149 µM	6 to 34.7 nM	Ratio EC50 [2]: 1.3 - 2.3
COC(=O)CSc1cnc(Nc2ccc(C#N)cc2)nc1Oc1c(C)cc(C#N)cc1C	–	inactive	13 to 863 nM	65.9 nM	152 to 15400	5.1 to 149 µM	–	–
Cc1ccnc2c1NC(=O)c1cccnc1N2C1CC1	–	–	–	–	–	–	–	inhibition [13]: Active
COC(=O)CCSc1cnc(Nc2ccc(C#N)cc2)nc1Oc1c(C)cc(C#N)cc1C	–	inactive	13 to 863 nM	60.2 nM	152 to 15400	5.1 to 149 µM	–	–
Cc1cc(C#N)cc(C)c1Oc1nc(Nc2ccc(C#N)cc2)ncc1SCC(=O)NCCN1CCN(C(=O)OC(C)(C)C)CC1	1.4 to 44.9 nM	inactive	13 to 863 nM	32.6 nM	152 to 15400	5.1 to 149 µM	6 to 157 nM	Ratio EC50 [15]: 0.4 - 1.9
COCCNC(=O)CSc1cnc(Nc2ccc(C#N)cc2)nc1Oc1c(C)cc(C#N)cc1C	1.4 to 8.3 nM	inactive	26 nM	3.8 nM	152 to 15400	5.1 to 149 µM	6 to 34.7 nM	Ratio EC50 [2]: 1.3 - 2.3; EC50 [4]: > 100 nM; inhibition [5]: Active; EC50 [6]: > 100 nM
Cc1cc(C#N)cc(C)c1Oc1nc(Nc2ccc(C#N)cc2)ncc1SCC(=O)N1CCN(C(=O)OC(C)(C)C)CC1	–	inactive	13 to 863 nM	88.5 nM	152 to 15400	5.1 to 149 µM	–	–
Cc1cc(C#N)cc(C)c1Oc1nc(Nc2ccc(C#N)cc2)ncc1SCC(=O)NCCCN1CCOCC1	1.4 nM	inactive	84 to 86 nM	2.6 nM	10000	27.2 µM	6 nM	Ratio EC50 [2]: 1.5 - 3; Ratio EC50 [16]: 1.5 - 3; Ratio EC50 [17]: 1.5 - 3; EC50 [4]: > 100 nM; EC50 ([5]; Human immunodeficiency virus 1, MT4, 120 h): 16.2 nM; EC50 [6]: > 100 nM; EC50 [7]: 11.6 nM; Ratio EC50 [12]: 1.5; EC50 [14]: 6.5 nM; Ratio EC50 [18]: 1.5 - 3; Ratio EC50 [19]: 1.5 - 3
Cc1cc(C#N)cc(C)c1Oc1nc(Nc2ccc(C#N)cc2)ncc1SCC(=O)NC1CCN(C(=O)OC(C)(C)C)CC1	1.4 to 44.9 nM	inactive	13 to 863 nM	< 10 nM	152 to 15400	5.1 to 149 µM	6 to 157 nM	Ratio EC50 [15]: 0.4 - 1.9
Cc1cn([C@H]2C[C@H](N=[N+]=[N-])[C@@H](CO)O2)c(=O)[nH]c1=O [ZIDOVUDINE]	–	–	–	–	–	–	38.6 nM	EC50 [7]: 14.1 nM; EC50 [14]: 8.3 nM
Cc1cc(C#N)cc(C)c1Oc1nc(Nc2ccc(C#N)cc2)ncc1SCC(=O)Nc1ccc(S(C)(=O)=O)cc1	1.4 to 8.3 nM	inactive	13 to 863 nM	< 10 nM	152 to 15400	5.1 to 149 µM	6 to 34.7 nM	–
Cc1cc(C#N)cc(C)c1Oc1nc(Nc2ccc(C#N)cc2)ncc1SCC(=O)NCCN1CCOCC1	1.4 to 8.3 nM	inactive	13 to 863 nM	2.6 to 6.2 nM	152 to 15400	5.1 to 149 µM	6 to 34.7 nM	Ratio EC50 [2]: 1.3 - 2.3
Cc1cc(C#N)cc(C)c1Oc1nc(Nc2ccc(C#N)cc2)ncc1SCC(N)=O	1.4 to 44.9 nM	inactive	13 to 863 nM	2.4 to 216 nM	152 to 15400	5.1 to 149 µM	6 to 34.7 nM	Ratio EC50 [15]: 0.4 - 1.9
Cc1cc(C#N)cc(C)c1Oc1nc(Nc2ccc(C#N)cc2)ncc1SCC(=O)NCC1CC1	–	inactive	13 to 863 nM	3.8 nM	152 to 15400	5.1 to 149 µM	–	–
